pIC50: −log10 of the molar value. Where two headings read alike, the source gives them in different places.
How the values were obtained:
[1] = molecular target: recombinant human mPGES-1 (Homo sapiens (Human), UniProt O14684); experiment: mPGES-1 enzyme assay (HTRF detection of PGE2); type: biochemical
In short: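 Microsomes from E. coli expressing recombinant human mPGES-1 (~0.5 μg protein/well) in 0.1 M phosphate pH 7.4 with 2.5 mM GSH, pre-incubated with compound 25 min at room temperature. PGH2 (2 μM final) added, reaction stopped with FeCl2 after 60 s; PGE2 quantified by HTRF (665/620 ratio) against a calibration curve, IC50 by nonlinear regression after background subtraction.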

[2] = molecular target: mPGES-1 in A549 cells (Homo sapiens (Human), UniProt O14684); experiment: A549 cell-based assay (PGE2 formation, 50% human serum)
In short: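 PGE2 release, read by HTRF and set to 100% for vehicle, gave IC50s from 6-8 point titrations. Human A549 cells were exposed to compound for 20-24 h in medium with 50% human serum, with IL-1β (5 ng/ml) and arachidonic acid (10 nM) as stimulus.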

[3] = recombinant human mPGES-1 microsomes, PGH2 2 μM, 60 seconds, read-out: mPGES-1 inhibitory effect IC50 in the enzyme assay
[4] = IL-1β 5 ng/ml, 10 nM arachidonic acid, 20-24 h, read-out: mPGES-1 inhibitory effect IC50 in the cell assay
[5] = Table C comparison of selected benzimidazoles, read-out: Enzym IC50
[6] = Table C comparison of selected benzimidazoles, read-out: Cell IC50

Sequence of recombinant human mPGES-1 (O14684 whole entry): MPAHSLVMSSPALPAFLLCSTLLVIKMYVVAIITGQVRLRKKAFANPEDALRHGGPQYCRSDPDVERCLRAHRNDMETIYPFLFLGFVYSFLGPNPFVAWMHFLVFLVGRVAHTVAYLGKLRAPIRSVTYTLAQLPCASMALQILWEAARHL
Sequence of mPGES-1 in A549 cells (O14684 whole entry): as above

SMILES	pIC50 [1, 3]	pIC50 [2, 4]	pIC50 [1, 5]	pIC50 [2, 6]
Cn1c(Nc2c(Cl)ccc(CNC(=O)[C@](C)(O)C(F)(F)F)c2Cl)nc2cc(C(=O)Nc3ccc(F)c(Cl)c3)c(N3CC[C@@H](F)C3)cc21 [Example 248]	8.17	8.22	–	–
Cn1c(Nc2c(Cl)ccc(CNC(=O)C(C)(C)F)c2Cl)nc2cc(C(=O)N[C@H]3CC[C@H](C(F)(F)F)CC3)c(N3CCC(C(F)(F)F)CC3)cc21 [Example 249]	8.38	8.22	–	–
Cn1c(Nc2c(Cl)ccc(CNC(=O)C(C)(C)F)c2Cl)nc2cc(C(=O)N[C@H]3CC[C@@H](C(F)(F)F)CC3)c(N3CCC(C(F)(F)F)CC3)cc21 [Example 253]	8.24	8.62	–	–
Cn1c(Nc2c(Cl)ccc(CNC(=O)C(C)(C)F)c2Cl)nc2cc(C(=O)NC3CC(F)(F)C3)c(N3CCC(C(F)(F)F)CC3)cc21 [Example 256]	8.41	9.00	–	–
Cn1c(Nc2c(Cl)ccc(CNC(=O)C(C)(C)C(F)(F)F)c2Cl)nc2cc(C(=O)NC3CC(F)(F)C3)c(N3CCC(C(F)(F)F)CC3)cc21 [Example 257]	8.72	8.46	–	–
Cn1c(Nc2c(Cl)ccc(CNC(=O)[C@@](C)(O)C(F)(F)F)c2Cl)nc2cc(C(=O)NC3CC(F)(F)C3)c(N3CCC(C(F)(F)F)CC3)cc21 [Example 258]	8.66	8.40	–	–
Cn1c(Nc2c(Cl)ccc(CNC(=O)[C@](C)(O)C(F)(F)F)c2Cl)nc2cc(C(=O)NC3CC(F)(F)C3)c(N3CCC(C(F)(F)F)CC3)cc21 [Example 259]	8.39	8.70	–	–
Cn1c(Nc2c(Cl)ccc(CNC(=O)C(C)(C)F)c2Cl)nc2cc(C(=O)NCCC(F)(F)F)c(N3CCC(C(F)(F)F)CC3)cc21 [Example 260]	8.40	8.70	–	–
Cn1c(Nc2c(Cl)ccc(CNC(=O)C(C)(C)C(F)(F)F)c2Cl)nc2cc(C(=O)NCCC(F)(F)F)c(N3CCC(C(F)(F)F)CC3)cc21 [Example 261]	8.54	8.80	–	–
Cn1c(Nc2cc(CNC(=O)C(C)(C)C)ccc2Cl)nc2cc(C(=O)Nc3ccc(Br)cc3)c(OCC(F)F)cc21 [[drawing 48] of WO 2010/100249, reference compound]	–	–	8.52	8.00
Cn1c(Nc2cc(CNC(=O)C(C)(C)C)ccc2Cl)nc2cc(C(=O)NCC3CC3)c(OCC(F)F)cc21 [[drawing 52] of WO 2010/100249, reference compound]	–	–	8.70	< 6.70

The next lines start with results.

pIC50 [1, 3]	pIC50 [2, 4]	SMILES	pIC50 [1, 5]	pIC50 [2, 6]
8.77	9.00	Cn1c(Nc2c(Cl)ccc(CNC(=O)C(C)(C)C(F)(F)F)c2Cl)nc2cc(C(=O)N[C@H]3CC[C@H](C(F)(F)F)CC3)c(N3CCC(C(F)(F)F)CC3)cc21 [Example 250]	–	–
8.41	9.00	Cn1c(Nc2c(Cl)ccc(CNC(=O)[C@@](C)(O)C(F)(F)F)c2Cl)nc2cc(C(=O)N[C@H]3CC[C@H](C(F)(F)F)CC3)c(N3CCC(C(F)(F)F)CC3)cc21 [Example 251]	–	–
8.54	8.85	Cn1c(Nc2c(Cl)ccc(CNC(=O)[C@](C)(O)C(F)(F)F)c2Cl)nc2cc(C(=O)N[C@H]3CC[C@H](C(F)(F)F)CC3)c(N3CCC(C(F)(F)F)CC3)cc21 [Example 252]	–	–
8.51	9.00	Cn1c(Nc2c(Cl)ccc(CNC(=O)C(C)(C)C(F)(F)F)c2Cl)nc2cc(C(=O)N[C@H]3CC[C@@H](C(F)(F)F)CC3)c(N3CCC(C(F)(F)F)CC3)cc21 [Example 254]	–	–
8.37	8.40	Cn1c(Nc2c(Cl)ccc(CNC(=O)[C@](C)(O)C(F)(F)F)c2Cl)nc2cc(C(=O)N[C@H]3CC[C@@H](C(F)(F)F)CC3)c(N3CCC(C(F)(F)F)CC3)cc21 [Example 255]	–	–

Source: patent US8674113B2, “Compounds” (Boehringer Ingelheim International GmbH, priority 2010, dated 2014)
